Results from patent publication US12304932B2, “PACAP stabilized peptide” (SENJU PHARMACEUTICAL CO., LTD., priority 2017, dated 2025).
Square brackets hold non-standard residues; d marks the D form. Peptide text beside a SMILES is read from it. Ala(1H-tetrazol-5-yl) = N[C@@H](Cc1nnn[nH]1)C(=O)O

Test: Peptide stability tests 2 and 3: Tris buffer pH 7.0, stored at 60° C., HPLC conditions 2
Type: physicochemical
Conditions: 100 μM peptide, Tris buffer pH 7.0, 60° C.; for survival rate after correction for water, 60° C., 2-week storage: 2 weeks
Protocol: (§1) Peptides 1, 2 and 6 to 9 synthesized in Example 2 were weighed and dissolved in Tris buffer (pH 7.0) to prepare 1.0 mM peptide solutions. The solutions were filtered with a Chromatdisk (product of Merck Millipore, Millex-GV, 0.22 μm). Each filtrate was diluted to 100 μM with Tris buffer (pH 7.0) and dispensed into a tube (Protein LoBind Tube by Eppendorf Co.). The prepared peptide solutions were incubated for 1 week or 2 weeks in a 60° C. thermostatic bath to obtain stored samples. A simultaneously prepared sample among the peptide solutions that was not stored was used as a standard sample (initial sample). The standard sample and the stored samples were stored at −30° C. until sample analysis.
Each stored sample was measured under the following HPLC analysis conditions 2, and the survival rate after correction for water for each peptide among the stored samples was calculated in the same manner as Example 3.
Column: XSelect CSH C18 by Waters Co., 5 μm, 4.6×250 mm
Guard column: XSelect CSH C18 by Waters. Co., 5 μm, 4.6×20 mm Guard Cartridge
Detection wavelength: 220 nm
Mobile phase A: 0.1% formic acid in water
Mobile phase B: 0.1% formic acid in acetonitrile
Measuring time: 20 minutes
Measuring sample injection rate: 50 μL
Column temperature: 40° C.
Mobile phase delivery: The mixing ratio of mobile phase A and mobile phase B was varied as shown in Table 5 for linear concentration gradient control.
as §1, with “Peptides 12 to 25, 27” for “Peptides 1, 2”, “and 28” for “and 6 to 9”, “for one” for “for 1”
The survival rate after correction for water for each peptide among the stored samples was calculated in the same manner as Example 4, and the results are shown in Table 7.
as §1, with “29” for “1, 2 and 6”, “34” for “9”, “for” for “for 1 week or”
The survival rate after correction for water for each peptide among the stored samples was calculated in the same manner as Example 4, and the results are shown in Table 7-2.

| SMILES | survival rate after correction for water, 60° C., 1-week storage [%] | survival rate after correction for water, 60° C., 2-week storage [%] |
| --- | --- | --- |
| CC[C@H](C)[C@H](NC(=O)CNC(=O)[C@H](Cc1nnn[nH]1)NC(=O)[C@H](CO)NC(=O)[C@H](Cc1c[nH]cn1)NC(C)=O)C(=O)N[C@@H](Cc1ccccc1)C(=O)N[C@H](C(=O)N[C@@H](Cc1nnn[nH]1)C(=O)N[C@@H](CO)C(=O)N[C@@H](Cc1ccc(O)cc1)C(=O)N[C@@H](CO)C(=O)N[C@@H](CCCNC(=N)N)C(=O)N[C@@H](Cc1ccc(O)cc1)C(=O)N[C@@H](CCCNC(=N)N)C(=O)N[C@@H](CCCNC(=N)N)C(=O)N[C@@H](CCC(N)=O)C(=O)N[C@@H](CC(C)C)C(=O)N[C@@H](C)C(=O)N[C@H](C(=O)N[C@@H](CCCNC(=N)N)C(=O)N[C@@H](CCCNC(=N)N)C(=O)N[C@@H](Cc1ccc(O)cc1)C(=O)N[C@@H](CC(C)C)C(=O)N[C@@H](C)C(=O)N[C@@H](C)C(=O)N[C@H](C(=O)N[C@@H](CC(C)C)C(N)=O)C(C)C)C(C)C)[C@@H](C)O [Peptide 21] (Ac-HS[Ala(1H-tetrazol-5-yl)]GIFT[Ala(1H-tetrazol-5-yl)]SYSRYRRQLAVRRYLAAVL-NH2) | 97.8 | 93.5 |
| CC[C@H](C)[C@H](NC(=O)CNC(=O)[C@H](Cc1nnn[nH]1)NC(=O)[C@H](CO)NC(=O)[C@H](Cc1c[nH]cn1)NC(C)=O)C(=O)N[C@@H](Cc1ccccc1)C(=O)N[C@H](C(=O)N[C@@H](Cc1nnn[nH]1)C(=O)N[C@@H](CO)C(=O)N[C@@H](Cc1ccc(O)cc1)C(=O)N[C@@H](CO)C(=O)N[C@@H](CCCNC(=N)N)C(=O)N[C@@H](Cc1ccc(O)cc1)C(=O)N[C@@H](CCCNC(=N)N)C(=O)N[C@@H](CCCNC(=N)N)C(=O)N[C@@H](CCC(N)=O)C(=O)N[C@@H](CC(C)C)C(=O)N[C@@H](C)C(=O)N[C@H](C(=O)N[C@@H](CCCNC(=N)N)C(=O)N[C@@H](CCCNC(=N)N)C(=O)N[C@@H](Cc1ccc(O)cc1)C(=O)N[C@@H](CC(C)C)C(=O)N[C@@H](C)C(=O)N[C@@H](C)C(=O)N[C@H](C(=O)N[C@@H](CC(C)C)C(=O)NCC(=O)N[C@@H](CCCNC(=N)N)C(=O)N[C@@H](CCCNC(=N)N)C(N)=O)C(C)C)C(C)C)[C@@H](C)O [Peptide 22] (Ac-HS[Ala(1H-tetrazol-5-yl)]GIFT[Ala(1H-tetrazol-5-yl)]SYSRYRRQLAVRRYLAAVLGRR-NH2) | 98.2 | – |
| CC[C@H](C)[C@H](NC(=O)[C@H](C)NC(=O)[C@H](Cc1nnn[nH]1)NC(=O)[C@H](CO)NC(=O)[C@H](Cc1c[nH]cn1)NC(C)=O)C(=O)N[C@@H](Cc1ccccc1)C(=O)N[C@H](C(=O)N[C@@H](Cc1nnn[nH]1)C(=O)N[C@@H](CO)C(=O)N[C@@H](Cc1ccc(O)cc1)C(=O)N[C@@H](CO)C(=O)N[C@@H](CCCNC(=N)N)C(=O)N[C@@H](Cc1ccc(O)cc1)C(=O)N[C@@H](CCCNC(=N)N)C(=O)N[C@@H](CCCCN)C(=O)N[C@@H](CCC(N)=O)C(=O)N[C@@H](CC(C)C)C(=O)N[C@@H](C)C(=O)N[C@H](C(=O)N[C@@H](CCCCN)C(=O)N[C@@H](CCCCN)C(=O)N[C@@H](Cc1ccc(O)cc1)C(=O)N[C@@H](CC(C)C)C(=O)N[C@@H](C)C(=O)N[C@@H](C)C(=O)N[C@H](C(=O)N[C@@H](CC(C)C)C(N)=O)C(C)C)C(C)C)[C@@H](C)O [Peptide 23] (Ac-HS[Ala(1H-tetrazol-5-yl)]AIFT[Ala(1H-tetrazol-5-yl)]SYSRYRKQLAVKKYLAAVL-NH2) | 96.5 | 93.1 |
| CC[C@H](C)[C@H](NC(=O)CNC(=O)[C@H](Cc1nnn[nH]1)NC(=O)[C@H](C)NC(=O)[C@H](Cc1c[nH]cn1)NC(C)=O)C(=O)N[C@@H](Cc1ccccc1)C(=O)N[C@H](C(=O)N[C@@H](Cc1nnn[nH]1)C(=O)N[C@@H](C)C(=O)N[C@@H](Cc1ccc(O)cc1)C(=O)N[C@@H](CO)C(=O)N[C@@H](CCCNC(=N)N)C(=O)N[C@@H](Cc1ccc(O)cc1)C(=O)N[C@@H](CCCNC(=N)N)C(=O)N[C@@H](CCCCN)C(=O)N[C@@H](CCC(N)=O)C(=O)N[C@@H](CC(C)C)C(=O)N[C@@H](C)C(=O)N[C@H](C(=O)N[C@@H](CCCCN)C(=O)N[C@@H](CCCCN)C(=O)N[C@@H](Cc1ccc(O)cc1)C(=O)N[C@@H](CC(C)C)C(=O)N[C@@H](C)C(=O)N[C@@H](C)C(=O)N[C@H](C(=O)N[C@@H](CC(C)C)C(N)=O)C(C)C)C(C)C)[C@@H](C)O [Peptide 24] (Ac-HA[Ala(1H-tetrazol-5-yl)]GIFT[Ala(1H-tetrazol-5-yl)]AYSRYRKQLAVKKYLAAVL-NH2) | 98.1 | 94.3 |
| CC[C@H](C)[C@H](NC(=O)CNC(=O)[C@H](Cc1nnn[nH]1)NC(=O)[C@H](C)NC(=O)[C@H](Cc1c[nH]cn1)NC(C)=O)C(=O)N[C@@H](Cc1ccccc1)C(=O)N[C@H](C(=O)N[C@@H](Cc1nnn[nH]1)C(=O)N[C@@H](CO)C(=O)N[C@@H](Cc1ccc(O)cc1)C(=O)N[C@@H](CO)C(=O)N[C@@H](CCCNC(=N)N)C(=O)N[C@@H](Cc1ccc(O)cc1)C(=O)N[C@@H](CCCNC(=N)N)C(=O)N[C@@H](CCCCN)C(=O)N[C@@H](CCC(N)=O)C(=O)N[C@@H](C)C(=O)N[C@@H](C)C(=O)N[C@H](C(=O)N[C@@H](CCCCN)C(=O)N[C@@H](CCCCN)C(=O)N[C@@H](Cc1ccc(O)cc1)C(=O)N[C@@H](CC(C)C)C(=O)N[C@@H](C)C(=O)N[C@@H](C)C(=O)N[C@H](C(=O)N[C@@H](CC(C)C)C(N)=O)C(C)C)C(C)C)[C@@H](C)O [Peptide 25] (Ac-HA[Ala(1H-tetrazol-5-yl)]GIFT[Ala(1H-tetrazol-5-yl)]SYSRYRKQAAVKKYLAAVL-NH2) | 95.8 | 91.2 |
| CC[C@H](C)[C@H](NC(=O)CNC(=O)[C@H](Cc1nnn[nH]1)NC(=O)[C@H](CO)NC(=O)[C@H](Cc1c[nH]cn1)NC(C)=O)C(=O)N[C@@H](Cc1ccccc1)C(=O)N[C@H](C(=O)N[C@@H](Cc1nnn[nH]1)C(=O)N[C@@H](C)C(=O)N[C@@H](Cc1ccc(O)cc1)C(=O)N[C@@H](CO)C(=O)N[C@@H](CCCNC(=N)N)C(=O)N[C@@H](Cc1ccc(O)cc1)C(=O)N[C@@H](CCCNC(=N)N)C(=O)N[C@@H](CCCCN)C(=O)N[C@@H](CCC(N)=O)C(=O)N[C@@H](C)C(=O)N[C@@H](C)C(=O)N[C@H](C(=O)N[C@@H](CCCCN)C(=O)N[C@@H](CCCCN)C(=O)N[C@@H](Cc1ccc(O)cc1)C(=O)N[C@@H](CC(C)C)C(=O)N[C@@H](C)C(=O)N[C@@H](C)C(=O)N[C@H](C(=O)N[C@@H](CC(C)C)C(N)=O)C(C)C)C(C)C)[C@@H](C)O [Peptide 27] (Ac-HS[Ala(1H-tetrazol-5-yl)]GIFT[Ala(1H-tetrazol-5-yl)]AYSRYRKQAAVKKYLAAVL-NH2) | 96.4 | 93.5 |
| CC[C@H](C)[C@H](NC(=O)CNC(=O)[C@H](Cc1nnn[nH]1)NC(=O)[C@H](CO)NC(=O)[C@H](Cc1c[nH]cn1)NC(C)=O)C(=O)N[C@@H](Cc1ccccc1)C(=O)N[C@H](C(=O)N[C@@H](Cc1nnn[nH]1)C(=O)N[C@@H](CO)C(=O)N[C@@H](Cc1ccc(O)cc1)C(=O)N[C@@H](CO)C(=O)N[C@@H](CCCNC(=N)N)C(=O)N[C@@H](Cc1ccc(O)cc1)C(=O)N[C@@H](CCCNC(=N)N)C(=O)N[C@@H](CCCCN)C(=O)N[C@@H](C)C(=O)N[C@@H](C)C(=O)N[C@@H](C)C(=O)N[C@H](C(=O)N[C@@H](CCCCN)C(=O)N[C@@H](CCCCN)C(=O)N[C@@H](Cc1ccc(O)cc1)C(=O)N[C@@H](CC(C)C)C(=O)N[C@@H](C)C(=O)N[C@@H](C)C(=O)N[C@H](C(=O)N[C@@H](CC(C)C)C(N)=O)C(C)C)C(C)C)[C@@H](C)O [Peptide 28] (Ac-HS[Ala(1H-tetrazol-5-yl)]GIFT[Ala(1H-tetrazol-5-yl)]SYSRYRKAAAVKKYLAAVL-NH2) | 94.6 | 90.5 |
